{
  "source": "paper PMC10681007",
  "about": "“Targeted Degradation of XIAP is Sufficient and Specific to Induce Apoptosis in MYCN-overexpressing High-risk Neuroblastoma” (Cancer Research Communications, 2023)",
  "key": {"[1]": {"system": "HS5 (bone marrow origin)", "assay": "RealTime-Glo MT cell viability assay, noncancerous normal cells", "type": "cell-based, Human", "method": "(§1) Cell viability was measured in real time using RealTime-Glo MT Cell Viability Assay as according to manufacturer's instructions from Promega. Cells were seeded at 1 × 10^4 cells per well and treated with a range of doses of indicated antagonists, followed by continuous bioluminescence reading every 24 hours for 3 days using luminescent plate reader, Varioskan (SkanIT software). IC50 was determined using GraphPad Prism software.\n(§2) To determine their efficacy in neuroblastoma, a panel of neuroblastoma cell lines including neuroblastoma patient-derived cell lines and noncancerous normal tissue-derived cell lines were treated with increasing doses of each antagonist (0–100 µmol/L), followed by real-time measurement of cell viability every 24 for 72 hours.\n(§3) To evaluate this, noncancerous normal tissue-derived cell lines THLE3 and HS5 were utilized to evaluate toxicity and tolerability."}, "[2]": {"system": "THLE3 (liver origin)", "assay": "RealTime-Glo MT cell viability assay, noncancerous normal cells", "type": "cell-based, Human", "method": "as §1, §2, §3"}, "[3]": {"system": "neuroblastoma cells across the panel of cell lines", "assay": "Cell viability, IC50 range across the panel", "type": "cell-based, Human", "settings": "range over cell lines, doses 0–100 µmol/L, viability every 24 for 72 hours; read-out: IC50 against neuroblastoma cells across the panel of cell lines", "method": "as §1, with “([…]” for “(SkanIT”, “software. To determine their efficacy in neuroblastoma, a panel of neuroblastoma cell lines including neuroblastoma patient-derived cell lines and noncancerous normal tissue-derived cell lines were treated with increasing doses of each antagonist (0-100 μmol/L), followed by real-time measurement of cell viability every 24 for 72 hours. […] Supplementary Table S2; Fig. 2A). […] Fig. 2A).” for “software.”"}, "[4]": {"target": "T1, endogenous XIAP (Homo sapiens, UniProt P98170)", "T1 construct": "knock-in a bioluminescent tag at endogenous loci of XIAP; endogenous in cells; host or cells: BE(2)-C and KELLY cells, CRISPR/Cas9 HiBiT knock-in, stably transfected with LgBiT vector (Promega)", "T1 sequence (P98170 whole entry)": "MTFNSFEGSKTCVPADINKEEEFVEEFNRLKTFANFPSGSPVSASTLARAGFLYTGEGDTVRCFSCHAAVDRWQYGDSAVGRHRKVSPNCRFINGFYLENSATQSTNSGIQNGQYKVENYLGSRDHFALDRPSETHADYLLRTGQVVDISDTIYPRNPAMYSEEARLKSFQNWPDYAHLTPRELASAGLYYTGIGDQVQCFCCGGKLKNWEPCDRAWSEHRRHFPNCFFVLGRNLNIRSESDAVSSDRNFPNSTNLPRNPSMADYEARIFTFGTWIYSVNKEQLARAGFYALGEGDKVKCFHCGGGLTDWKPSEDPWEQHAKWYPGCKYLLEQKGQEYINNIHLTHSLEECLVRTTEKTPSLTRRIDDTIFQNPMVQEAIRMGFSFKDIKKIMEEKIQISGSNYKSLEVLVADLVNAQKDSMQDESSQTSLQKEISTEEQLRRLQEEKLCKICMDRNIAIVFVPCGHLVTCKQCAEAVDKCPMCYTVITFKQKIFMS", "assay": "Degradation of endogenous luciferase-tagged XIAP (HiBiT/LgBiT), real-time luminescence", "type": "cell-based", "settings": "for DC50: 8 hours, read-out: DC50, degradation curve at 8h", "description": "B, Degradation profiles of endogenous XIAP in response to A4 or BV6 treatment of neuroblastoma cells, BE(2)-C (top) and KELLY (bottom). Cells were treated with increasing dose of A4 or BV6 and luminescence was measured continuously in real time for 2 hours. Luminescence values were normalized to DMSO vehicle control and degradation profiles were generated using GraphPad Prism. Values were expressed as mean ± SD of three independent experiments conducted in duplicates.\n(A) Degradation profiles of endogenous XIAP in response to A4 treatment of neuroblastoma cells, BE(2)-C and KELLY. (B) Degradation profiles of endogenous XIAP in response to BV6 treatment of neuroblastoma cells, BE(2)-C and KELLY. […] Cells were treated with increasing dose of A4 or BV6 and luminescence was measured continuously in real-time for 2 hours (A4) or 8 hours (BV6), respectively. Luminescence values were normalized to DMSO vehicle control and degradation profiles were generated using GraphPad Prism. Values were expressed as mean ± SD of three independent experiments."}, "[5]": {"system": "BE(2)-C and KELLY cells", "assay": "Apoptosis (cleaved PARP/caspase-3, Caspase-Glo 3/7)", "type": "cell-based, Human", "settings": "10 µmol/L", "method": "(§4) The determination of caspase-3/7 levels as an indication for apoptosis activity was performed using a Caspase-Glo 3/7 assay kit from Promega according to manufacturer's instructions. Cells were seeded at 1 × 10^4 cells per well and treated with 10 µmol/L of IAP antagonists for various indicated timings, followed by bioluminescence measurement using luminescent plate reader, Tecan Infinite200 Pro. The activity of apoptosis was also measured by flow cytometry using the Dead Cell Apoptosis Kit with Annexin V FITC and PI (Thermo Fisher Scientific) according to manufacturer's instructions. Cells harvested from lentiviral infection were subjected to Annexin V (2.5 µL) and PI (40 ng/mL, 0.5 µL) staining, followed by flow cytometric analysis using BD LSRFortessa cell analyzer with excitation/emission spectra of 494 nm/518 nm for FITC and 535 nm/617 nm for PI.\n(§5) FIGURE 2 Specific loss of XIAP expression, not c-IAP1, is required for mediating apoptosis in high-risk neuroblastoma cells. A, Summary of IAP antagonists’ efficacy in killing neuroblastoma cells. […] C, Graphical representation showing the fold change of caspase-3/7 activity relative to vehicle controls after treatment with 10 µmol/L of either A4, B3, or BV6 at indicated timings (data were expressed as mean ± SD of three independent experiments conducted in duplicates; *, P < 0.05). […]"}, "[6]": {"system": "HS5 cells", "assay": "Apoptosis (cleaved PARP/caspase-3, Caspase-Glo 3/7)", "type": "cell-based", "settings": "10 µmol/L", "method": "as §4, §5"}},
  "note": "Like-named read-outs stand apart in the source and are kept apart here. Starred links: 1 amine or outer side, 2 acyl side, 3 side chain; linkers in the order of their positions; H or OH if unused. Positions of bridges follow the written chain, without caps; N, C: chain ends. Non-standard residues stand in square brackets, D forms with d. Residues, ends and D or L forms follow the SMILES beside them. Chains are numbered I, II in the order given. Hexamethylenediamine = C(CCCN[*:2])CCN[*:1]; Dip = N[C@H](C(=O)O)C(c1ccccc1)c1ccccc1; Chg = N[C@H](C(=O)O)C1CCCCC1; NMeA = CN[C@@H](C)C(=O)O",
  "data": [
    {"smiles": "CN[C@@H](C)C(=O)N[C@H](C(=O)N1CCC[C@H]1C(=O)N[C@H](C(=O)NCCCCCCNC(=O)[C@@H](NC(=O)[C@@H]1CCCN1C(=O)[C@@H](NC(=O)[C@H](C)NC)C1CCCCC1)C(c1ccccc1)c1ccccc1)C(c1ccccc1)c1ccccc1)C1CCCCC1", "note": "[BV6] (I: H-[NMeA][Chg]P[Dip] / II: H-[NMeA][Chg]P[Dip]; linker I:C-II:C via Hexamethylenediamine)", "values": [
      {"measurement": "IC50", "setting": "[1]; HS5, 24 hours", "result": 6.1, "unit": "µM"},
      {"measurement": "IC50", "setting": "[1]; HS5, 48 hours", "result": 4.4, "unit": "µM"},
      {"measurement": "IC50", "setting": "[1]; HS5, 72 hours", "result": 3.6, "unit": "µM"},
      {"measurement": "IC50", "setting": "[2]; THLE3, 24 hours", "result": 11.3, "unit": "µM"},
      {"measurement": "IC50", "setting": "[2]; THLE3, 48 hours", "result": 6.8, "unit": "µM"},
      {"measurement": "IC50", "setting": "[2]; THLE3, 72 hours", "result": 5.2, "unit": "µM"},
      {"measurement": "IC50", "setting": "[3]", "result": "3 to 20", "unit": "µM"},
      {"measurement": "degradation of XIAP", "setting": "[4]; 2 hours' exposure, BE(2)-C and KELLY", "result": "minimal degradation of XIAP"},
      {"measurement": "DC50", "setting": "[4]; BE(2)-C", "result": 44.5, "unit": "µM"},
      {"measurement": "DC50", "setting": "[4]; KELLY", "result": 32, "unit": "µM"},
      {"measurement": "apoptosis (PARP and caspase-3 cleavage, caspase-3/7 activity)", "setting": "[5]", "result": "minimal or no apoptosis"},
      {"measurement": "apoptosis", "setting": "[6]", "result": "significant apoptosis"}
    ]}
  ]
}
